Measurements from patent US20130065936A1, “MODULATION OF BIOACTIVE EPOXY-FATTY ACID LEVELS BY PHOSPHODIESTERASE INHIBITORS” (THE REGENTS OF THE UNIVERSITY OF CALIFORNIA, priority 2010, published 2013).

Experiments:
Sprague-Dawley rats [1] = assay: Acute nociceptive responses in healthy rats, Hargreaves thermal withdrawal latency; assay type: in vivo, rat; settings: for antagonism of / interaction with rolipram-produced increase in thermal withdrawal latency: Hargreaves, celecoxib 20, fluconazole 40, micanozole 40, finasteride 10, picrotoxin 0.25 mg/kg
Sprague-Dawley rats [2] = assay: Acute nociceptive responses in healthy rats, Randall-Selitto mechanical sensitivity assay; assay type: in vivo, rat; settings: picrotoxin 0.25 mg/kg s.c.
[3] = test system: endogenous oxylipin sEH substrates and products in rat plasma; assay: Oxylipin analysis in rat plasma after sEHI / PDE inhibitor administration (LC-ESI-MS/MS); assay type: in vivo; settings: rat plasma 45 min after s.c.; 1 mg/kg, pentoxyphilline 10 mg/kg;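 note: plasma from tail vein blood, oxylipins quantified by LC-ESI-MS/MS against deuterated internal standards following solid-phase extraction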
sEH = target: T1, sEH (Homo sapiens, UniProt P34913); assay: sEH inhibition as stated in the general description (earlier tests, '506 patent); assay type: biochemical
T1 sequence (P34913 1-555): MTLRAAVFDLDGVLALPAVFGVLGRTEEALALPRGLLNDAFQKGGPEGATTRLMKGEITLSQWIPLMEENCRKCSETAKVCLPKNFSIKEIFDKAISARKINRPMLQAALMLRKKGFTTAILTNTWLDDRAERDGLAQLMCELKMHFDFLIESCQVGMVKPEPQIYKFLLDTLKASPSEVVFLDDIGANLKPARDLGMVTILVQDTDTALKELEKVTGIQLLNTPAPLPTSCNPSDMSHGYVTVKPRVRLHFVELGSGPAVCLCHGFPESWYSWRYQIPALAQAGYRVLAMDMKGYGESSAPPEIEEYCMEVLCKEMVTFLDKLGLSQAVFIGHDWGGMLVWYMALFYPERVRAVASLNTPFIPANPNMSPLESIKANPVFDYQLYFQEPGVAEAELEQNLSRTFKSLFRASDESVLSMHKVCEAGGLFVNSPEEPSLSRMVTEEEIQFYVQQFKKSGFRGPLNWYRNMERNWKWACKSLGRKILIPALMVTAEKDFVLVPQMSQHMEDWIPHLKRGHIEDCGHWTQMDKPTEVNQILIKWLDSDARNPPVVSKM

Sprague-Dawley rats [4] = assay: Open field activity; assay type: in vivo, rat; settings: 1 h following administration
Protocol: For the measurement of open field activity animals were placed in an acrylic chamber (40×40×20 cm length×width×height) divided into 100 cm^2 (10×10 cm) sections. The number of crossings were recorded when both hind paws crossed into a neighboring cell.

Molecule: picrotoxin
- antagonism of / interaction with rolipram-produced increase in thermal withdrawal latency (Sprague-Dawley rats [1]): partially blocked rolipram
- thermal withdrawal latency / pain related behavior, change from predrug baseline (Sprague-Dawley rats [1]; healthy rats, s.c., about 1 h after administration): ineffective on its own in changing pain related behavior
- antagonism of the increase in thermal withdrawal latency produced by rolipram/AUDA (Sprague-Dawley rats [1]; picrotoxin 0.25 mg/kg s.c.): effectively antagonized
- antagonism of the increase in mechanical withdrawal threshold produced by rolipram/AUDA (Sprague-Dawley rats [2]): effectively antagonized

Molecule: CN(C(=O)CCCOc1ccc2[nH]c(=O)ccc2c1)C1CCCCC1 [Cilostamide]
- 8(9)-EpETE [3]: 0.74 nM
- 8(9)-EpETrE [3]: 3.13 nM
- 8,9-DiHETE [3]: 0.27 nM
- 8,9-DiHETrE [3]: 0.47 nM
- 9(10)-EpOME [3]: 32.41 nM
- 9,10-DiHOME [3]: 29.53 nM
- 10(11)-EpDPE [3]: 4.06 nM
- 10,11-DiHDPE [3]: 0.66 nM
- 11(12)-EpETE [3]: 0.45 nM
- 11(12)-EpETrE [3]: 4.44 nM
- 11,12-DiHETE [3]: 0.43 nM
- 11,12-DiHETrE [3]: 1.60 nM
- 12(13)-EpOME [3]: 51.82 nM
- 12,13-DiHOME [3]: 37.98 nM
- 13(14)-EpDPE [3]: 2.23 nM
- 13,14-DiHDPE [3]: 0.73 nM
- 14(15)-EpETE [3]: 0.49 nM
- 14(15)-EpETrE [3]: 7.71 nM
- 14,15-DiHETE [3]: 1.24 nM
- 14,15-DiHETrE [3]: 1.82 nM
- 16(17)-EpDPE [3]: 2.94 nM
- 16,17-DiHDPE [3]: 2.28 nM
- 17(18)-EpETE [3]: 2.66 nM
- 17,18-DiHETE [3]: 3.08 nM
- 19(20)-EpDPE [3]: 8.95 nM
- 19,20-DiHDPE [3]: 5.50 nM
- Ratio 8(9)-EpETE / 8,9-DiHETE [3]: 2.81
- Ratio 8(9)-EpETrE / 8,9-DiHETrE [3]: 6.69
- Ratio 9(10)-EpOME / 9,10-DiHOME [3]: 1.10
- Ratio 10(11)-EpDPE / 10,11-DiHDPE [3]: 6.13
- Ratio 11(12)-EpETE / 11,12-DiHETE [3]: 1.04
- Ratio 11(12)-EpETrE / 11,12-DiHETrE [3]: 2.78
- Ratio 12(13)-EpOME / 12,13-DiHOME [3]: 1.36
- Ratio 13(14)-EpDPE / 13,14-DiHDPE [3]: 3.05
- Ratio 14(15)-EpETE / 14,15-DiHETE [3]: 0.39
- Ratio 14(15)-EpETrE / 14,15-DiHETrE [3]: 4.24
- Ratio 16(17)-EpDPE / 16,17-DiHDPE [3]: 1.29
- Ratio 17(18)-EpETE / 17,18-DiHETE [3]: 0.86
- Ratio 19(20)-EpDPE / 19,20-DiHDPE [3]: 1.63
- total Di-hydroxyeicosanoid [3]: 322.82 nM
- total Epoxyeicosanoid [3]: 1014.12 nM
- total Ratio epoxy/dihydroxy eicosanoids [3]: 3.14

Molecule: CC(C)(C)NC(=O)[C@H]1CC[C@H]2[C@@H]3CC[C@H]4NC(=O)C=C[C@]4(C)[C@H]3CC[C@]12C [finasteride]
- antagonism of / interaction with rolipram-produced increase in thermal withdrawal latency (Sprague-Dawley rats [1]): competitive antagonism

Molecule: Clc1ccc(COC(Cn2ccnc2)c2ccc(Cl)cc2Cl)c(Cl)c1 (stereo not drawn) [micanozole]
- antagonism of / interaction with rolipram-produced increase in thermal withdrawal latency (Sprague-Dawley rats [1]): lack of antagonism

Molecule: CCCCCCCCCCCCNC(=O)NC12CC3CC(CC(C3)C1)C2 [ADU, N-Adamantyl-N′-dodecyl urea]
- activity as inhibitor of sEH (sEH): particularly high activity on sEH

Molecule: OC(Cn1cncn1)(Cn1cncn1)c1ccc(F)cc1F [fluconazole]
- antagonism of / interaction with rolipram-produced increase in thermal withdrawal latency (Sprague-Dawley rats [1]): Noncompetitive antagonism

Molecule: CC(=O)N1CCC(NC(=O)Nc2ccc(OC(F)(F)F)cc2)CC1 [TPAU]
- voluntary movement in an open-field chamber (motor depressant effect) (Sprague-Dawley rats [4]): indistinguishable from baseline activity

Molecule: CCc1ccc2c(-c3cccc(Cl)c3)nc(=O)n(CC)c2n1 [YM976]
- 8(9)-EpETE [3]: 2.74 nM
- 8(9)-EpETrE [3]: 13.59 nM
- 8,9-DiHETE [3]: 0.29 nM
- 8,9-DiHETrE [3]: 0.58 nM
- 9(10)-EpOME [3]: 147.05 nM
- 9,10-DiHOME [3]: 37.07 nM
- 10(11)-EpDPE [3]: 20.16 nM
- 10,11-DiHDPE [3]: 0.82 nM
- 11(12)-EpETE [3]: 2.23 nM
- 11(12)-EpETrE [3]: 22.80 nM
- 11,12-DiHETE [3]: 0.48 nM
- 11,12-DiHETrE [3]: 1.55 nM
- 12(13)-EpOME [3]: 159.31 nM
- 12,13-DiHOME [3]: 57.32 nM
- 13(14)-EpDPE [3]: 10.28 nM
- 13,14-DiHDPE [3]: 0.81 nM
- 14(15)-EpETE [3]: 1.99 nM
- 14(15)-EpETrE [3]: 26.50 nM
- 14,15-DiHETE [3]: 1.19 nM
- 14,15-DiHETrE [3]: 1.84 nM
- 16(17)-EpDPE [3]: 10.41 nM
- 16,17-DiHDPE [3]: 2.22 nM
- 17(18)-EpETE [3]: 4.49 nM
- 17,18-DiHETE [3]: 2.95 nM
- 19(20)-EpDPE [3]: 18.10 nM
- 19,20-DiHDPE [3]: 6.24 nM
- Ratio 8(9)-EpETE / 8,9-DiHETE [3]: 9.62
- Ratio 8(9)-EpETrE / 8,9-DiHETrE [3]: 23.44
- Ratio 9(10)-EpOME / 9,10-DiHOME [3]: 3.97
- Ratio 10(11)-EpDPE / 10,11-DiHDPE [3]: 24.59
- Ratio 11(12)-EpETE / 11,12-DiHETE [3]: 4.69
- Ratio 11(12)-EpETrE / 11,12-DiHETrE [3]: 14.76
- Ratio 12(13)-EpOME / 12,13-DiHOME [3]: 2.78
- Ratio 13(14)-EpDPE / 13,14-DiHDPE [3]: 12.66
- Ratio 14(15)-EpETE / 14,15-DiHETE [3]: 1.67
- Ratio 14(15)-EpETrE / 14,15-DiHETrE [3]: 14.43
- Ratio 16(17)-EpDPE / 16,17-DiHDPE [3]: 4.68
- Ratio 17(18)-EpETE / 17,18-DiHETE [3]: 1.52
- Ratio 19(20)-EpDPE / 19,20-DiHDPE [3]: 2.90
- total Di-hydroxyeicosanoid [3]: 423.59 nM
- total Epoxyeicosanoid [3]: 535.16 nM
- total Ratio epoxy/dihydroxy eicosanoids [3]: 1.26

Molecule: CC(=O)CCCCn1c(=O)c2c(ncn2C)n(C)c1=O [Pentoxyphilline]
- 8(9)-EpETE [3]: 1.27 nM
- 8(9)-EpETrE [3]: 6.41 nM
- 8,9-DiHETE [3]: 0.30 nM
- 8,9-DiHETrE [3]: 0.54 nM
- 9(10)-EpOME [3]: 59.92 nM
- 9,10-DiHOME [3]: 34.24 nM
- 10(11)-EpDPE [3]: 7.86 nM
- 10,11-DiHDPE [3]: 0.71 nM
- 11(12)-EpETE [3]: 0.80 nM
- 11(12)-EpETrE [3]: 10.60 nM
- 11,12-DiHETE [3]: 0.45 nM
- 11,12-DiHETrE [3]: 1.77 nM
- 12(13)-EpOME [3]: 87.05 nM
- 12,13-DiHOME [3]: 50.89 nM
- 13(14)-EpDPE [3]: 4.20 nM
- 13,14-DiHDPE [3]: 0.79 nM
- 14(15)-EpETE [3]: 0.69 nM
- 14(15)-EpETrE [3]: 14.76 nM
- 14,15-DiHETE [3]: 1.06 nM
- 14,15-DiHETrE [3]: 1.73 nM
- 16(17)-EpDPE [3]: 5.07 nM
- 16,17-DiHDPE [3]: 2.20 nM
- 17(18)-EpETE [3]: 3.08 nM
- 17,18-DiHETE [3]: 2.81 nM
- 19(20)-EpDPE [3]: 12.04 nM
- 19,20-DiHDPE [3]: 6.00 nM
- Ratio 8(9)-EpETE / 8,9-DiHETE [3]: 4.15
- Ratio 8(9)-EpETrE / 8,9-DiHETrE [3]: 11.91
- Ratio 9(10)-EpOME / 9,10-DiHOME [3]: 1.75
- Ratio 10(11)-EpDPE / 10,11-DiHDPE [3]: 11.13
- Ratio 11(12)-EpETE / 11,12-DiHETE [3]: 1.79
- Ratio 11(12)-EpETrE / 11,12-DiHETrE [3]: 6.00
- Ratio 12(13)-EpOME / 12,13-DiHOME [3]: 1.71
- Ratio 13(14)-EpDPE / 13,14-DiHDPE [3]: 5.30
- Ratio 14(15)-EpETE / 14,15-DiHETE [3]: 0.66
- Ratio 14(15)-EpETrE / 14,15-DiHETrE [3]: 8.52
- Ratio 16(17)-EpDPE / 16,17-DiHDPE [3]: 2.30
- Ratio 17(18)-EpETE / 17,18-DiHETE [3]: 1.10
- Ratio 19(20)-EpDPE / 19,20-DiHDPE [3]: 2.01
- total Di-hydroxyeicosanoid [3]: 423.15 nM
- total Epoxyeicosanoid [3]: 497.36 nM
- total Ratio epoxy/dihydroxy eicosanoids [3]: 1.18
